Test in all cases: NCI tumour cell line growth inhibition, 48 h
Assay [1] relates to SF-539 CNS.
Assay [2] has as its system UACC-257 melanoma.
Assay [3] relates to SW-620 colon.
The test system of assay [4] is A498 renal.
Assay [5] deals with TK-10 renal.
Assay [6] has as its system HOP-92 NSCLC.
The subject of assay [7] is SK-MEL-5 melanoma.
Assay [8] deals with SK-MEL-2 melanoma.
Assay [9] has as its system NCI-H522 lung.
The subject of assay [10] is CCRF-CEM leukemia.

Several values for one entry are separate records, joined by “and”; a condition that tells them apart may be missing. Equal values may be shown once.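 All cell lines were grown in 96-well plates and treated with compound for 48 hours. The concentration for 50% growth inhibition is given as GI50. TGI denotes the concentration required for complete inhibition of growth.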

For `COc1ccc(C(=O)COc2cccc(/C=C3\COc4ccc5ccccc5c4C3=O)c2)cc1`, the GI50 in assay [1] was 13.3 µM; in assay [2] it was 39.7 µM; in [3], 3.33 µM; in assay [4], 12.2 µM; in [5] it was 24.2 µM; in [6] it was 0.786 µM. For the same compound, the GI50 in assay [7] was 5.58 µM; in assay [8], 5.83 µM; in assay [9] it was 8.13 µM; in assay [10], 1.92 µM. The TGI in assay [1] was > 100 µM; in assay [2], > 100 µM; in [3] it was 13.7 µM; in assay [4], 87 µM; in [5] it was > 100 µM; in assay [6] it was 8.14 µM. In addition, the TGI in [7] is > 100 µM; in [8] it was > 100 µM; in assay [9], > 100 µM; in assay [10] it was 6.26 µM.
Consider `O=C(O)CP(=S)(S)c1ccccc1` (configuration not stated), for which the TGI in [1], in assay [2], in assay [3], in assay [4], in assay [5] and in assay [6] was > 100 µM each time. In addition, the TGI in assay [7], in assay [8], in assay [9] and in assay [10] was > 100 µM in each case.
On to `COC(=O)Nc1nc2ccc(Oc3ccc(NC(=O)Nc4ccccc4)cc3)cc2[nH]1`, for which the GI50 in assay [1] is 0.0885 µM; in [2], 0.167 µM; in assay [3], 0.101 µM; in assay [4] it was 0.141 µM; in [5], 0.787 µM; in assay [6], 0.555 µM. Moreover, the GI50 is 0.0702 µM in assay [7], 0.109 µM in assay [8], 0.0686 µM in [9] and 0.123 µM in assay [10]. The TGI is 0.878 µM in assay [1]; > 14.8 µM in assay [2]; > 10.2 µM in assay [3]; 4.97 µM in assay [4]; 9.74 µM in [5]; 11.1 µM in assay [6]. The TGI in assay [7] was 1.18 µM; in [8], 2.19 µM; in [9], 0.667 µM; in assay [10], > 8.59 µM.
For the compound `CC/C=C\C[C@@H]1C/C=C2/C(=O)C=C[C@H]2C/C=C\CCCC(=O)O1`, the GI50 in assay [1] is 0.533 µM; in assay [2], 1.37 µM; in [3], 0.483 µM; in assay [4], 1.81 µM; in [5] it was 1.48 µM; in assay [6], 2.25 µM. Also, the GI50 in assay [7] was 0.348 µM; in [8], 1.8 µM; in assay [9] it was 0.231 µM; in [10], 0.24 µM. Further, the TGI in [1] was 2.97 µM; in assay [2], 3.39 µM; in [3], 2.02 µM; in assay [4], 3.3 µM; in [5], 3.14 µM; in [6], 4.97 µM. Also, the TGI in [7] worked out at 1.43 µM; in [8], 4.23 µM; in [9] it was 0.737 µM; in assay [10] it was 1.58 µM.
For `CCN(CC)CCCC(C)Nc1c(C)cnc2cc(Cl)c(C)cc12` (configuration not stated), the GI50 in assay [1] was 6.83 µM; in assay [2] it was 18.2 µM; in [3], 10.6 µM; in assay [4], 16.6 µM; in assay [5], 13.9 µM; in assay [6], 0.288 µM. The GI50 was 3.92 µM in assay [7], 20.4 µM in [8], 23 µM in [9] and 8.66 µM in assay [10]. Further, the TGI turned out to be 21.1 µM in assay [1]; 34.4 µM in assay [2]; 25.7 µM in assay [3]; 31.4 µM in [4]; 28.4 µM in assay [5]; 3.87 µM in assay [6]. In addition, the TGI is 13.3 µM in [7], > 70.6 µM in assay [8], 53.1 µM in assay [9] and 34.8 µM in assay [10].
For the compound `Cc1ccc(Nc2nc3c(s2)C(=O)c2ccccc2C3=O)c(C)c1`, the TGI in [1] is 31.4 µM; in [2], 22.8 µM; in [3] it was 43.5 µM; in assay [4], > 100 µM; in assay [5] it was 36.6 µM; in [6] it was 22.9 µM. For the same compound, the TGI is 28.2 µM in [7], 28.2 µM in [8], 4.66 µM in assay [9] and 25.8 µM in [10].
For the compound `O=C(N/N=C/c1cccc(O)c1O)c1ccccc1`, the GI50 in assay [1] is 0.642 µM; in assay [2], 0.895 µM; in assay [3] it was 0.635 µM; in assay [4], 6.28 µM; in [5], 2.57 µM; in assay [6] it was 0.329 µM. The GI50 in assay [7] was 0.626 µM; in assay [8], 11.7 µM; in assay [9], 0.323 µM; in assay [10] it was 0.244 µM. Further, the TGI is 15.3 µM in assay [1]; 7.05 µM in assay [2]; > 100 µM in assay [3]; 65.4 µM in assay [4]; > 69.1 µM in assay [5]; 8.38 µM in assay [6]. Moreover, the TGI is > 22.7 µM in assay [7], > 100 µM in [8], 2.25 µM in assay [9] and > 59.7 µM in assay [10].
`NCCCC[C@@H]1NC(=O)[C@H]2CCCN2C(=O)[C@H](Cc2ccccc2)NC(=O)[C@H](Cc2ccccc2)CNC1=O`: the GI50 is > 100 µM in [1]; > 100 µM in assay [2]; > 100 µM in [3]; > 100 µM in [4]; > 100 µM in [5]; 44.1 µM in assay [6]. In addition, the GI50 in assay [7], in [8], in assay [9] and in [10] was > 100 µM in each case. The TGI in assay [1], in assay [2], in assay [3], in [4], in assay [5] and in assay [6] was > 100 µM in each case. Moreover, the TGI in assay [7], in [8], in assay [9] and in assay [10] was > 100 µM each time.
For the compound `COC(=O)c1cccc2cccc(C(=O)Nc3ccc(C)cc3C)c12`, the TGI in assay [1], in [2], in assay [3], in [4], in [5] and in assay [6] was > 100 µM each time. The TGI in assay [7], in assay [8], in [9] and in assay [10] was > 100 µM each time.
Consider `COc1ccc2c(c1)CCC1C3(CCCC21C)OCCO3` (configuration not stated), for which the TGI in assay [1] is 26.3 µM; in [2] it was 62.1 µM; in assay [3], 96.2 µM; in [4] it was 82.6 µM; in assay [5], > 100 µM; in assay [6] it was 35.3 µM. Moreover, the TGI in assay [7] amounted to 31.1 µM; in assay [8], 23.5 µM; in [9], 37.4 µM; in [10], 40.6 µM.
As to `CC1CN1CC(O)C(O)CN1CC1C` (configuration not stated), the GI50 is 1.84 µM in [1]; 3.12 µM in assay [2]; 2.47 µM in assay [3]; 3.61 µM in [4]; 7.7 µM in assay [5]; 6.12 µM in assay [6]. Further, the GI50 in [7] was 3.3 µM; in assay [8], 8.58 µM; in assay [9] it was 1.72 µM; in assay [10] it was 1.41 µM. The TGI was 45.4 µM in [1]; 23.3 µM in assay [2]; > 62 µM in assay [3]; 16.8 µM in assay [4]; 65.7 µM in assay [5]; > 28.6 µM in assay [6]. Further, the TGI in assay [7] is 14.8 µM; in assay [8], > 64.2 µM; in [9] it was 7.08 µM; in assay [10], > 100 µM.
In the case of `CC(C)N(C(=O)C12CC3CC(CC(C3)C1)C2)C(C)C`, the TGI in assay [1], in [2], in assay [3], in assay [4], in [5] and in [6] was > 50 µM each time. Further, the TGI in [7], in assay [8], in [9] and in [10] was > 50 µM throughout.
Take `COc1ccc2c(c1)C=C([N+](=O)[O-])C(C1OC(C)(C)OC1C1COC(C)(C)O1)O2` (configuration not stated): the TGI in [1] was 19.3 µM; in assay [2], 6.16 µM; in assay [3] it was 6.81 µM; in [4] it was 33.3 µM; in assay [5], 32.4 µM; in assay [6], 37.8 µM. Further, the TGI was 9.17 µM in assay [7], 4.36 µM in [8], 2.29 µM in assay [9] and 4.2 µM in assay [10].
Regarding `O=C(O)CN(c1ccccc1)S(=O)(=O)c1ccccc1[N+](=O)[O-]`, the TGI in assay [1], in [2], in assay [3], in [4], in assay [5] and in assay [6] was > 100 µM in each case. Also, the TGI in assay [7], in assay [8], in [9] and in assay [10] was > 100 µM in each case.
With `CCCCCCCCCCCCCC1CCC(CC)N1` (configuration not stated), the TGI was 32.1 µM in [1]; 40.6 µM in [2]; 29.6 µM in assay [3]; 36.7 µM in assay [4]; 32 µM in [5]; 31.3 µM in assay [6]. Further, the TGI in [7] was found to be 31.8 µM; in [8], 36.4 µM; in assay [9], 32.6 µM; in [10], 18.2 µM.
Regarding `Clc1nc(Cl)c2ncn(Cc3cccc(COc4cccc(OCc5cccc(Cn6cnc7c(Cl)nc(Cl)nc76)c5)c4)c3)c2n1`, the GI50 in [1] is > 100 µM; in assay [2], 13.5 µM; in assay [3], > 100 µM; in [4], > 100 µM; in assay [5] it was 37.5 µM; in assay [6] it was 15.6 µM. Further, the GI50 in assay [7] is 9.76 µM; in assay [8] it was 17.1 µM; in assay [9] it was 41.1 µM; in [10], 5.24 µM. Also, the TGI was > 100 µM in [1]; > 100 µM in assay [2]; > 100 µM in assay [3]; > 100 µM in assay [4]; > 100 µM in assay [5]; 69.2 µM in [6]. Moreover, the TGI in [7] is 46.1 µM; in assay [8] it was > 100 µM; in [9] it was > 100 µM; in assay [10], > 100 µM.
For `CCc1[nH]c(=O)nc(N)c1-c1ccc(N2CCCCC2)c([N+](=O)[O-])c1`, the TGI in assay [1], in assay [2], in assay [3], in [4], in assay [5] and in assay [6] was > 100 µM each time. The TGI in [7], in [8], in assay [9] and in assay [10] was > 100 µM in each case.
As for `CCC1(O)C(=O)OCc2c1cc1n(c2=O)Cc2cc3ccc(C=O)cc3nc2-1` (configuration not stated), the GI50 in assay [1] is 1.69 µM; in assay [2], 7.73 µM; in assay [4], 5.39 µM; in [5], 20.8 µM; in assay [7] it was 1.57 µM; in assay [8], 17.6 µM. Further, the GI50 in assay [9] is 6.8 µM and 2.9 µM; in assay [10], 0.052 µM. The TGI was 23.7 µM and 43.7 µM in assay [2]; 50 µM and > 100 µM in assay [3]; 13.5 µM and 19.5 µM in assay [4]; 50 µM and > 100 µM in assay [5]; 42 µM and 84.4 µM in [6]; 6.95 µM and 6.23 µM in assay [7]. Moreover, the TGI is 40.6 µM and 39.2 µM in [8]; 15.4 µM and 13.8 µM in assay [9]; 0.37 µM and 1.14 µM in assay [10].
Regarding `COc1cc(C2=NN(C(C)=O)C(c3ccc(OC(C)=O)cc3OC(C)=O)O2)c(OC(C)=O)c2ccccc12` (configuration not stated), the GI50 in [1] was 0.697 µM; in assay [2], 0.981 µM; in [3], 0.608 µM; in assay [4] it was 1.59 µM; in [5], 1.31 µM; in assay [6], 2.07 µM. For the same compound, the GI50 in assay [7] was 0.984 µM; in [8] it was 10.8 µM; in assay [9], 1.19 µM; in assay [10] it was 0.338 µM. Moreover, the TGI in [1] came out at 3.48 µM; in [2], 6.86 µM; in assay [3], 27.5 µM; in [4] it was 11.6 µM; in [5] it was 35.1 µM; in assay [6], 30.7 µM. For the same compound, the TGI in [7] is 7.54 µM; in assay [8] it was 49.4 µM; in [9] it was 11 µM; in assay [10], 8.03 µM.

Values taken from PubChem BioAssay (NCI).
